The target in test [1] is T1, NTD wt (Severe acute respiratory syndrome coronavirus 2, UniProt P0DTC9). Format: binding.
For test [2], the system named is FL. Format: binding.
For the next test, the system named is RNA-FL complex. The test is classed as binding, SARS-CoV-2. The following applies: for competition with RNA / nucleic acids binding to FL: DLS, in words. The protocol:
To further address whether the ligands may modify the oligomeric status of the FL protein, we performed dynamic light scattering experiments. […] We then tested whether ligand binding to FL could be competitive with nucleic acids binding.
(§1) The experiments were performed on a Malvern nanosizer apparatus. The temperature was set at 20 °C, and 10 scans with a duration of 10 s each were acquired in duplicate for each time and sample. The size distribution in the intensity of the scattered light was obtained using the Cumulants method from the instrumental software, yielding the hydrodynamic diameter. The N NTD concentration was in the range of 40–60 μM, the FL concentration was in the range of 1 to 10 µM in 20 mM Tris buffer at pH = 7.9 containing 100 mM NaCl. The melting experiments were performed at a heating rate of 1 °C/min over the range 30 °C to 65 °C in sealed disposable cuvettes. The apparent melting temperature, Tm, was determined by the first derivative of the melting curve.

For the next test, the system named is viral replication. The following applies: cited from earlier work.
Test [3] relates to FL. Format: binding, SARS-CoV-2. The following applies: for Size (nm) Intensity / Size (nm) Volume: pH 7.9.
In the next test the test system is DNA-FL complex. The experiment in a line: Dynamic light scattering, competition with DNA binding to FL. The following applies: for Size, Intensity: percentage in parentheses / Size, Volume: percentage in parentheses / Size (nm) Volume / Size (nm) Intensity: DNA + ligand, 4 µM, FL 4 µM; for Size (nm) Volume: without ligand 15.7 ± 1.2; for Size (nm) Intensity: without ligand 25.3 ± 3.1. Also on record: species or system SARS-CoV-2. The method, then: To further address whether the ligands may modify the oligomeric status of the FL protein, we performed dynamic light scattering experiments. FL (2 µM) presented a main peak at 12.0 ± 0.6 nm in volume (14 nm in intensity); the size of the complex decreased to 10.3 and 7.8 ± 0.3 nm upon addition of 2 µM and 6 µM enkephalin, respectively (Figure 6D). […] We then tested whether ligand binding to FL could be competitive with nucleic acids binding.
as §1

The subject of test [4] is patients hospitalized for mild and moderate COVID-19. The following applies: human, in vivo; cited from earlier work.
Test [5] relates to model of reconstituted lung epithelium. Particulars: cited from earlier work.
Test [6] concerns the target T1, NTD wt. Particulars: cited from earlier work.
Another test relates to SARS-CoV-2. The following applies: cited from earlier work.

pKd: −log10 of the molar value. Values joined by “and” are separate entries in the source; they are usually repeats but may differ in a detail not shown here. Equal values may be shown once. “Also recorded” adds a separate entry of the source. Read-outs that look alike come from different tables or passages of the source.

Regarding Dihydrofolate [DHF], the pKd on NTD wt [1] (SPR, NTD, ligand range 0.3–10.0 µM, 20 mM HEPES, 100 mM NaCl, 0.05% Tween) was ~6.00 and 6.00. Besides, in the test with FL [2], the “binding to FL by SPR, in words” value is “binding of DHF to the full-length protein was smaller”. For the same molecule, in the test on RNA-FL complex, the “competition with RNA / nucleic acids binding to FL” value is “consistent with a competition”. Also, the “effect on viral replication” value is “decrease viral replication” with viral replication (ref [17],[18],[34],[35]) and “reduction of viral replication” in the test with viral replication (ref [35]).

tetrahydrofolate [THF]: the “effect on viral replication” value in the test with viral replication (ref [35]) is “reduction of viral replication”.

For Hemin, the “effect on viral replication” value is given as “reduce viral replication” in the test on viral replication (hemin binding to N, ref [32]) and “decrease viral replication” with viral replication (ref [17],[18],[34],[35]).

For the molecule Leu-enkephalin, in the test with FL [3], the “Size, Intensity: percentage in parentheses” value (“Size, Intensity: percentage” for short) was 12.6 ± 0.6 (31%) 8.7 ± 0.2 (40%); the “Size, Volume: percentage in parentheses” value is listed as 11.3 ± 0.6 (96%) 8.0 ± 0.3 (100%); the “effect on size (oligomeric status) of FL” value was “decreased its size as compared to the size of N alone”; the “Size (nm) Intensity” value is given as 12.6 ± 0.6 (31%) 8.7 ± 0.2 (40%) nm. Also, in the test on FL [3], the “Size (nm) Volume” value is 11.3 ± 0.6 (96%) 8.0 ± 0.3 (100%) nm. In addition, in the test with RNA-FL complex, the “competition with RNA / nucleic acids binding to FL” value is listed as “competitive with nucleic acids binding to FL; also recorded: consistent with a competition”. Moreover, the “effect on size of N-DNA complex, in words” value in the test on DNA-FL complex (DLS, Figure 6E) is “the size of the N-DNA complex was reduced”. Moreover, in the test with DNA-FL complex, the “Size, Intensity: percentage” value is 89%; the “Size, Volume: percentage in parentheses” value turned out to be 99%; the “Size (nm) Volume” value was found to be 9.0 ± 1.7 nm; the “Size (nm) Intensity” value came out at 10.5 ± 1.2 nm.

For the molecule `COc1ccc2c(c1)c(CC(=O)O)c(C)n2C(=O)c1ccc(Cl)cc1` [Indomethacin, indomethacin], in the test with FL [3], the “Size, Intensity: percentage” value is 11.0 ± 0.4 (30%) 6.7 ± 0.3 (60%); the “Size, Volume: percentage in parentheses” value is reported as 10.3 ± 0.5 (100%) 6.3 ± 0.4 (96%); the “effect on size (oligomeric status) of FL” value is “a larger decrease”; the “Size (nm) Intensity” value is on record as 11.0 ± 0.4 (30%) 6.7 ± 0.3 (60%) nm. The “Size (nm) Volume” value in the test with FL [3] is 10.3 ± 0.5 (100%) 6.3 ± 0.4 (96%) nm. The “competition with RNA / nucleic acids binding to FL” value in the test with RNA-FL complex is reported as “consistent with a competition”. The “effect on viral replication” value in the test on viral replication (ref [17],[18],[34],[35]) was “decrease viral replication”. For the same molecule, the patient recovery entry in test [4] is reported as “helped the patients to recover”.

With “RPKPQQF-OH [Substance P (1-7), Substance P (1-7) RPKPQQF-OH]”, the “binding to NTD by SPR, in words” value on NTD wt [1] is “observed”. Further, the “binding to FL by SPR, in words” value in the test with FL [2] is recorded as “bound the N FL protein as measured by SPR; also recorded: observed”. Also, in the test with FL [3], the “Size, Intensity: percentage” value was 10.3 ± 0.6 (50%) 8.0 ± 1.0 (76%); the “Size, Volume: percentage in parentheses” value was 9.5 ± 0.6 (98%) 7.2 ± 1.1 (99%); the “effect on size (oligomeric status) of FL” value was “a larger decrease”; the “Size (nm) Intensity” value is on record as 10.3 ± 0.6 (50%) 8.0 ± 1.0 (76%) nm. The “Size (nm) Volume” value in the test with FL [3] is given as 9.5 ± 0.6 (98%) 7.2 ± 1.1 (99%) nm. The “competition with RNA / nucleic acids binding to FL” value with RNA-FL complex is on record as “competitive with nucleic acids binding to FL; also recorded: consistent with a competition”. Also, in the test with RNA-FL complex (RNA + ligand, 4 µM, FL 4 µM), the “Size, Intensity: percentage” value is reported as 75% and the “Size, Volume: percentage in parentheses” value is recorded as 97%. The “Size (nm) Volume” value in the test with RNA-FL complex (RNA + ligand, 4 µM, FL 4 µM, without ligand 15.1 ± 1.1) stood at 11.3 ± 0.6 nm. The “Size (nm) Intensity” value in the test on RNA-FL complex (RNA + ligand, 4 µM, FL 4 µM, without ligand 21.5 ± 2.0) is listed as 16.1 ± 0.6 nm. Besides, in the test with DNA-FL complex, the “Size, Intensity: percentage” value is recorded as 70%; the “Size, Volume: percentage in parentheses” value came out at 91%; the “Size (nm) Volume” value was determined as 10.1 ± 0.6 nm; the “Size (nm) Intensity” value turned out to be 13.8 ± 0.6 nm.

Consider `COc1ccc2cc([C@H](C)C(=O)O)ccc2c1` [Naproxen, naproxen], for which, in the test on FL [3], the “Size, Intensity: percentage” value was 12.2 ± 0.5 (40%) 8.7 ± 0.3 (60%); the “Size, Volume: percentage in parentheses” value is 11.3 ± 0.4 (99%) 8.9 ± 0.3 (96%); the “effect on size (oligomeric status) of FL” value is given as “the same trend was observed”; the “Size (nm) Intensity” value is 12.2 ± 0.5 (40%) 8.7 ± 0.3 (60%) nm. The “Size (nm) Volume” value with FL [3] was 11.3 ± 0.4 (99%) 8.9 ± 0.3 (96%) nm. Moreover, the “effect on viral replication” value in the test with viral replication is recorded as “decrease viral replication”. Further, in [5], the “protection of lung cells against viral injury” value is “protected lung cells against viral injury”; the “replication and inflammation in reconstituted lung epithelium” value was “inhibited replication and reduced inflammation”. Further, the “binding to N-terminal domain in vitro” value at NTD wt [6] is recorded as “bound to SARS-CoV-2 N-terminal domain (NTD) in vitro”. Further, the “viral load of infected cells” value in the test with SARS-CoV-2 is “reduced the viral load of infected cells”.

The term pKd denotes the Kd on a negative log10 scale, so that one unit is a factor of ten. Read a low pKd as a high Kd.

These data come from publication PMC9698730 (Molecules, 2022).
